Where two headings read alike, the source gives them in different places.
Biological target: T1, rat CB-1 receptor (Rattus norvegicus, UniProt P20272)
T1 construct: The tissue obtained from the brain of SD rats was homogenized; from tissue; host or cells: SD rat brain membrane homogenate
Test: rat cannabinoid-1 receptor (CB1R) binding affinity assay
Method: The tissue obtained from the brain of SD rats was homogenized with a Dounce homogenate system in TME(50 mM Tris, 3 mM MgCl2 and 1 mM EDTA, pH 7.4) at 4° C., and the homogenate was centrifuged at 48,000 g for 30 min. at 4° C. The pellet was resuspended in 5 ml of TME and the suspension was divided into aliquots and stored at −70° C. until its use in the following assay.
The tissue concentrations were determined by Bradford protein analysis, and 148 μl of brain tissue of the required concentration was added to the plate. The plate was covered and placed in a 30° C. incubator for 60 min, and then transformed on GF/B filtermat pretreated in polyethylenimine (PEI) using a cell harvester. Each filter was washed five times and dried at 60° C. for 1 hr. Then, the degree of radioactivity retained by the filter was measured using Wallac Microbeta™ (PerkinElmer Life Sciences, Inc., Massachusetts, U.S.A.) and the activity of the compound for inhibiting CB1 receptor was determined therefrom.

[1] = [3H]CP-55940 radioligand, SD rat brain tissue homogenate, 30° C., 60 min, read-out: IC50

T1 sequence (P20272 whole entry): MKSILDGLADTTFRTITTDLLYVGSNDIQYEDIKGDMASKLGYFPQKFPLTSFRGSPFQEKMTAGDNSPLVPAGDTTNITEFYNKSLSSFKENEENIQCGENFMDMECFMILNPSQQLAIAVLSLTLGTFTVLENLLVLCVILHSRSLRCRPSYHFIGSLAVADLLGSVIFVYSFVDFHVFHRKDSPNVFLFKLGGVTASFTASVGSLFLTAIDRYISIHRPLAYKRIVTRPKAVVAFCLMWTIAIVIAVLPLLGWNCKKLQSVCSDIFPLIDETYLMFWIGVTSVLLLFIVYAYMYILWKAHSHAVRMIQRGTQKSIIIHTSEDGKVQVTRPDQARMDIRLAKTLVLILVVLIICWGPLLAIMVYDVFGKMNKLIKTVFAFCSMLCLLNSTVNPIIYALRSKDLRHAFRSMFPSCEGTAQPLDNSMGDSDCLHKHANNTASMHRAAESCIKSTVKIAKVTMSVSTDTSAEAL

| Structure (SMILES) | IC50 [1] | IC50 |
| --- | --- | --- |
| CSc1c(-c2nnc(C3(C(F)(F)F)CCC3)o2)nn(-c2ccc(Cl)cc2Cl)c1-c1ccc(Cl)cc1 [Example 3, 2-(5-(4-chlorophenyl)-1-(2,4-dichlorophenyl)-4-(methylthio)-1H-pyrazol-3-yl)-5-(1-(trifluoromethyl)cyclobutyl)-1,3,4-oxadiazole] | 9.71 nM | – |
| CSc1c(-c2nnc(C3(C(F)(F)F)CCC3)o2)nn(-c2ccc(Cl)cc2Cl)c1-c1ccc(Br)cc1 [Example 11, 2-(5-(4-bromophenyl)-1-(2,4-dichlorophenyl)-4-(methylthio)-1H-pyrazol-3-yl)-5-(1-(trifluoromethyl)cyclobutyl)-1,3,4-oxadiazole] | 8.44 nM | – |
| CSc1c(-c2nnc(C3(c4ccc(Cl)cc4)CC3)o2)nn(-c2ccc(Cl)cc2Cl)c1-c1ccc(Br)cc1 [Example 12, 2-(5-(4-bromophenyl)-1-(2,4-dichlorophenyl)-4-(methylthio)-1H-pyrazol-3-yl)-5-(1-(4-chlorophenyl)cyclopropyl)-1,3,4-oxadiazole] | 9.23 nM | – |
| CSc1c(-c2nnc(C3(C(F)(F)F)CC3)o2)nn(-c2ccccc2Cl)c1-c1ccc(Br)cc1 [Example 14, 2-(5-(4-bromophenyl)-1-(2-chlorophenyl)-4-(methylthio)-1H-pyrazol-3-yl)-5-(1-(trifluoromethyl)cyclopropyl)-1,3,4-oxadiazole] | – | 4.11 nM |
| CSc1c(-c2nnc(C3(C(F)(F)F)CC3)s2)nn(-c2ccc(Cl)cc2Cl)c1-c1ccc(Cl)cc1 [Example 22, 2-(5-(4-chlorophenyl)-1-(2,4-dichlorophenyl)-4-(methylthio)-1H-pyrazol-3-yl)-5-(1-(trifluoromethyl)cyclopropyl)-1,3,4-thiadiazole] | 10.9 nM | – |
| CSc1c(-c2nnc(C3(C(F)(F)F)CCC3)s2)nn(-c2ccc(Cl)cc2Cl)c1-c1ccc(Cl)cc1 [Example 23, 2-(5-(4-chlorophenyl)-1-(2,4-dichlorophenyl)-4-(methylthio)-1H-pyrazol-3-yl)-5-(1-(trifluoromethyl)cyclobutyl)-1,3,4-thiadiazole] | – | 7.31 nM |
| CSc1c(-c2nnc(C3(c4ccc(Cl)cc4)CC3)s2)nn(-c2ccc(Cl)cc2Cl)c1-c1ccc(Cl)cc1 [Example 24, 2-(5-(4-chlorophenyl)-1-(2,4-dichlorophenyl)-4-(methylthio)-1H-pyrazol-3-yl)-5-(1-(4-chlorophenyl)cyclopropyl)-1,3,4-thiadiazole] | – | 6.66 nM |
| CSc1c(-c2nnc(C3(C(F)(F)F)CC3)s2)nn(-c2ccc(Cl)cc2Cl)c1-c1ccc(Br)cc1 [Example 30, 2-(5-(4-bromophenyl)-1-(2,4-dichlorophenyl)-4-(methylthio)-1H-pyrazol-3-yl)-5-(1-(trifluoromethyl)cyclopropyl)-1,3,4-thiadiazole] | 14.8 nM | – |
| CSc1c(-c2nnc(C3(C(F)(F)F)CC3)s2)nn(-c2ccccc2Cl)c1-c1ccc(Br)cc1 [Example 34, 2-(5-(4-bromophenyl)-1-(2-chlorophenyl)-4-(methylthio)-1H-pyrazol-3-yl)-5-(1-(trifluoromethyl)cyclopropyl)-1,3,4-thiadiazole] | 17.1 nM | – |
| CSc1c(-c2nnc(C3(C(F)(F)F)CCC3)s2)nn(-c2ccccc2Cl)c1-c1ccc(Br)cc1 [Example 35, 2-(5-(4-bromophenyl)-1-(2-chlorophenyl)-4-(methylthio)-1H-pyrazol-3-yl)-5-(1-(trifluoromethyl)cyclobutyl)-1,3,4-thiadiazole] | – | 7.77 nM |
| C[S+]([O-])c1c(-c2nnc(C(C)(C)C)o2)nn(-c2ccc(Cl)cc2Cl)c1-c1ccc(Cl)cc1 (stereo not shown) [Example 41, 2-tert-butyl-5-(5-(4-chlorophenyl)-1-(2,4-dichlorophenyl)-4-(methylsulfinyl)-1H-pyrazol-3-yl)-1,3,4-oxadiazole] | 30.4 nM | – |
| C[S+]([O-])c1c(-c2nnc(C3(C(F)(F)F)CC3)o2)nn(-c2ccc(Cl)cc2Cl)c1-c1ccc(Cl)cc1 (stereo not shown) [Example 42, 2-(5-(4-chlorophenyl)-1-(2,4-dichlorophenyl)-4-(methylsulfinyl)-1H-pyrazol-3-yl)-5-(1-(trifluoromethyl)cyclopropyl)-1,3,4-oxadiazole] | 24.6 nM | – |
| C[S+]([O-])c1c(-c2nnc(C3(C(F)(F)F)CCC3)o2)nn(-c2ccc(Cl)cc2Cl)c1-c1ccc(Cl)cc1 (stereo not shown) [Example 43, 2-(5-(4-chlorophenyl)-1-(2,4-dichlorophenyl)-4-(methylsulfinyl)-1H-pyrazol-3-yl)-5-(1-(trifluoromethyl)cyclobutyl)-1,3,4-oxadiazole] | 8.92 nM | – |
| C[S+]([O-])c1c(-c2nnc(C(C)(C)C)o2)nn(-c2ccccc2Cl)c1-c1ccc(Br)cc1 (stereo not shown) [Example 53, 2-(5-(4-bromophenyl)-1-(2-chlorophenyl)-4-(methylsulfinyl)-1H-pyrazol-3-yl)-5-tert-butyl-1,3,4-oxadiazole] | 15.6 nM | – |
| C[S+]([O-])c1c(-c2nnc(C(C)(C)C)s2)nn(-c2ccc(Cl)cc2Cl)c1-c1ccc(Cl)cc1 (stereo not shown) [Example 60, 2-tert-butyl-5-(5-(4-chlorophenyl)-1-(2,4-dichlorophenyl)-4-(methylsulfinyl)-1H-pyrazol-3-yl)-1,3,4-thiadiazole] | 19.1 nM | – |
| C[S+]([O-])c1c(-c2nnc(C3(C(F)(F)F)CC3)s2)nn(-c2ccc(Cl)cc2Cl)c1-c1ccc(Cl)cc1 (stereo not shown) [Example 61, 2-(5-(4-chlorophenyl)-1-(2,4-dichlorophenyl)-4-(methylsulfinyl)-1H-pyrazol-3-yl)-5-(1-(trifluoromethyl)cyclopropyl)-1,3,4-thiadiazole] | 11.3 nM | – |

More lines, main results first:

| IC50 [1] | Structure (SMILES) | IC50 |
| --- | --- | --- |
| 6.26 nM | CSc1c(-c2nnc(C(C)(C)C)o2)nn(-c2ccc(Cl)cc2Cl)c1-c1ccc(Cl)cc1 [Example 1, 2-tert-butyl-5-(5-(4-chlorophenyl)-1-(2,4-dichlorophenyl)-4-(methylthio)-1H-pyrazol-3-yl)-1,3,4-oxadiazole] | – |
| 6.63 nM | CSc1c(-c2nnc(C3(C(F)(F)F)CC3)o2)nn(-c2ccc(Cl)cc2Cl)c1-c1ccc(Cl)cc1 [Example 2, 2-(5-(4-chlorophenyl)-1-(2,4-dichlorophenyl)-4-(methylthio)-1H-pyrazol-3-yl)-5-(1-(trifluoromethyl)cyclopropyl)-1,3,4-oxadiazole] | – |
| 5.26 nM | CSc1c(-c2nnc(C3(c4ccc(Cl)cc4)CC3)o2)nn(-c2ccc(Cl)cc2Cl)c1-c1ccc(Cl)cc1 [Example 4, 2-(5-(4-chlorophenyl)-1-(2,4-dichlorophenyl)-4-(methylthio)-1H-pyrazol-3-yl)-5-(1-(4-chlorophenyl)cyclopropyl)-1,3,4-oxadiazole] | – |
| 8.3 nM | CSc1c(-c2nnc(C3(C(F)(F)F)CC3)o2)nn(-c2ccccc2Cl)c1-c1ccc(Cl)cc1 [Example 6, 2-(1-(2-chlorophenyl)-5-(4-chlorophenyl)-4-(methylthio)-1H-pyrazol-3-yl)-5-(1-(trifluoromethyl)cyclopropyl)-1,3,4-oxadiazole] | – |
| 4.21 nM | CSc1c(-c2nnc(C3(C(F)(F)F)CCC3)o2)nn(-c2ccccc2Cl)c1-c1ccc(Cl)cc1 [Example 7, 2-(1-(2-chlorophenyl)-5-(4-chlorophenyl)-4-(methylthio)-1H-pyrazol-3-yl)-5-(1-(trifluoromethyl)cyclobutyl)-1,3,4-oxadiazole] | – |
| 4.61 nM | CSc1c(-c2nnc(C3(c4ccc(Cl)cc4)CC3)o2)nn(-c2ccccc2Cl)c1-c1ccc(Cl)cc1 [Example 8, 2-(1-(2-chlorophenyl)-5-(4-chlorophenyl)-4-(methylthio)-1H-pyrazol-3-yl)-5-(1-(4-chlorophenyl)cyclopropyl)-1,3,4-oxadiazole] | – |
| 5.5 nM | CSc1c(-c2nnc(C(C)(C)C)o2)nn(-c2ccc(Cl)cc2Cl)c1-c1ccc(Br)cc1 [Example 9, 2-(5-(4-bromophenyl)-1-(2,4-dichlorophenyl)-4-(methylthio)-1H-pyrazol-3-yl)-5-tert-butyl-1,3,4-oxadiazole] | – |
| 7.95 nM | CSc1c(-c2nnc(C3(C(F)(F)F)CC3)o2)nn(-c2ccc(Cl)cc2Cl)c1-c1ccc(Br)cc1 [Example 10, 2-(5-(4-bromophenyl)-1-(2,4-dichlorophenyl)-4-(methylthio)-1H-pyrazol-3-yl)-5-(1-(trifluoromethyl)cyclopropyl)-1,3,4-oxadiazole] | – |
| 5.19 nM | CSc1c(-c2nnc(C(C)(C)C)s2)nn(-c2ccc(Cl)cc2Cl)c1-c1ccc(Cl)cc1 [Example 21, 2-tert-butyl-5-(5-(4-chlorophenyl)-1-(2,4-dichlorophenyl)-4-(methylthio)-1H-pyrazol-3-yl)-1,3,4-thiadiazole] | – |
| 5.7 nM | CSc1c(-c2nnc(C(C)(C)C)s2)nn(-c2ccccc2Cl)c1-c1ccc(Br)cc1 [Example 33, 2-(5-(4-bromophenyl)-1-(2-chlorophenyl)-4-(methylthio)-1H-pyrazol-3-yl)-5-tert-butyl-1,3,4-thiadiazole] | – |
| 6.51 nM | C[S+]([O-])c1c(-c2nnc(C3(C(F)(F)F)CCC3)o2)nn(-c2ccccc2Cl)c1-c1ccc(Br)cc1 (stereo not shown) [Example 55, 2-(5-(4-bromophenyl)-1-(2-chlorophenyl)-4-(methylsulfinyl)-1H-pyrazol-3-yl)-5-(1-(trifluoromethyl)cyclobutyl)-1,3,4-oxadiazole] | – |
| 4.12 nM | C[S+]([O-])c1c(-c2nnc(C3(C(F)(F)F)CCC3)s2)nn(-c2ccc(Cl)cc2Cl)c1-c1ccc(Cl)cc1 (stereo not shown) [Example 62, 2-(5-(4-chlorophenyl)-1-(2,4-dichlorophenyl)-4-(methylsulfinyl)-1H-pyrazol-3-yl)-5-(1-(trifluoromethyl)cyclobutyl)-1,3,4-thiadiazole] | – |
